Measured values reported in US5573772A, “Methods for protecting tissues and organs from ischemic damage” (priority 1994, dated 1996).

System: rabbit heart
Experiment: Infarct size in isolated rabbit hearts, A3-receptor mediation of preconditioning, Example 3
Method: New Zealand white rabbits of either sex, between 1.4-2.4 kg, were anesthetized with intravenous sodium pentobarbital (30 mg/kg). The neck was opened and a tracheotomy was performed. The rabbits were ventilated with 100% oxygen via a positive pressure respirator (MD industries, Mobile, Ala.). Ventilation rate was 30-35 breaths per minute, and tidal volume was approximately 15 ml. A left thoracotomy was performed in the fourth intercostal space and pericardium was opened to expose the heart. A 2-0 silk suture with an RB taper needle was passed around a branch of the left coronary artery, and the end of the silk were threaded through a small vinyl tube to form a snare. The heads were quickly excised and mounted on a Langendorff apparatus and perfused at constant pressure with Krebs buffer containing (in mM) 118.5 NaCl, 4.7 KCl, 1.2 MgSO4, 1.2 K2 PO4, 24.3 NaHCO3, 2.5 CaCl2 and 10 glucose. […] The temperature of the perfusate was maintained at 37° C. The perfusion pressure was kept at 75 mm Hg. Pacing electrodes were placed on the right atrium and all hearts were paced at 200 beats/minute with pulses of 5 volts and 4 msec duration to keep the heart rate constant. A fluid-filled latex balloon connected to a transducer via PE240 tubing was inserted into the left ventricle. Balloon volume was adjusted to set the left ventricular diastolic pressure at 10 mm Hg at the beginning of the experiment. Total coronary artery flow was measured by timed collection of buffer from the chamber into a graduated cylinder. Regional ischemia was effected by pulling the snare tight and clamping the tube with a hemostat. Global ischemia was performed by clamping the inflow tubing of the Langendorff apparatus. Reperfusion was achieved by releasing the restriction. All hearts were allowed to equilibrate for 20 minutes before the experiments were started. Heart rate (HR), coronary flow (CF) and left ventricular developed pressure (LVDP) were recorded at the point just before and at the end of each treatment with the pacing momentarily turned off. […] The hearts were removed from the Langendorff apparatus, weighed and then frozen. The hearts were cut into 2 mm transverse slices. The slices were thawed and incubated in 1% triphenyl tetrazolium chloride (TTC) in pH 7.4 buffer for 20 minutes at 37° C. TTC reacts with NADH and dehydrogenase enzymes and stains all tissue still having them to a deep red color. […] After staining, the area of infarcted tissue (TTC negative tissue) and the risk zone (area lacking fluorescence under ultraviolet light) in each slice were traced. The area of infarct and risk zone were determined by planimetry of the tracing. The volume of infarcted myocardium and myocardium at risk was then calculated by multiplying the planimetered areas by the slice thickness. The methods utilized in this example are identical to those described in Example 1. All hearts received 30 minutes of regional ischemia as described in Example 1. The control group (n=8) hearts received only 30 minutes of ischemia. Preconditioned (PC) hearts (n=10) received 5 minutes of global ischemia and 10 minutes of reperfusion prior to the regional ischemia. Adenosine (ADO) treated hearts (n=6) received 10 μM adenosine for 5 minutes prior to regional ischemia. APNEA treated hearts (n=6) received 65 μM APNEA for 5 minutes prior to regional ischemia. In groups receiving the nonselective adenosine blocker, 8-SPT, the blocker was included in the perfusate for 15 minutes at 100 μM starting 5 minutes before the exposure of ADO (ADO-SPT group, n=6), or APNEA (APNEA-SPT group, n=6 ) or 5 minutes before and after 5 minutes of preconditioning ischemia (PC-SPT group, n=5). […] For the PC-BW group (n=5), the A3-receptor antagonist, BW A1433, [Linden J, et al., Molecular Pharmacology 44:524-532 (1993)], was administered at a dose of 200 nM in the perfusate for 5 minutes before and 5 minutes after PC ischemia.

## Nc1ncnc2c1ncn2[C@@H]1O[C@H](CO)[C@@H](O)[C@H]1O [ADO, Adenosine]
ADO 10 μM, 5 minutes, control 32.2±1.5%, PC 8.8±2.3%
  Infarct size (of the risk area): 11.4±2.3%

## Nc1ccc(CCNc2ncnc3c2ncn3[C@@H]2O[C@H](CO)[C@@H](O)[C@H]2O)cc1 [APNEA, N^6-(2-(4-aminophenyl)ethyl) adenosine]
APNEA 65 μM (so in the source), 5 minutes, control 32.2±1.5%
  Infarct size (of the risk area): 12.6±2.2%

## Cn1c(=O)c2[nH]c(-c3ccc(S(=O)(=O)O)cc3)nc2n(C)c1=O [SPT, 8-(p-Sulfophenyl)-theophylline]
8-SPT 100 μM + ADO
  Infarct size (of the risk area): 29.8±3.7%
8-SPT 100 μM + APNEA
  Infarct size (of the risk area): 30.3±3.3%
8-SPT 100 μM + PC
  Infarct size (of the risk area): 33.8±2.7%

## CCCn1c(=O)c2[nH]c(C3CCCC3)nc2n(CCC)c1=O [DPCPX, 8-cyclopentyl-1,3-dipropylxanthine]
DPCPX 200 nM + ADO
  Infarct size (of the risk area): 14.4±2.8%
DPCPX 200 nM + APNEA
  Infarct size (of the risk area): 8.7±1.7%
DPCPX 200 nM + PC
  Infarct size (of the risk area): 15.6±7.8%
